In one data set the target is T1, H^+/K^+-ATPase (Oryctolagus cuniculus, UniProt P27112).
T1 construct: collecting the middle layer (H^+/K^+-ATPase enriched gastric membranes) into a clean centrifugal tube; from tissue; host or cells: rabbit stomach (gastric mucosal microsomes, sucrose/Ficoll gradient centrifugation)
Description: Inhibition of H+/K+-ATPase enzymatic activity (rabbit gastric mucosal microsomes, malachite green). It is filed as biochemical. The settings on record: pH 6.5, 37° C. 30 min, read-out: The median inhibitory concentration (IC50) of the compound to the activity of H^+/K^+-ATPase. The text has this: Biological Evaluation on H^+/K^+-ATPase
The following screening assays in vitro are used to evaluate the inhibiting effect of the compound of the Invention on the enzymatic activity of H^+/K^+-ATPase. Experimental materials and instruments are as follows:
1) Rabbit gastric mucosal microsomes (enriched H^+/K^+-ATPase; extracted by the Applicant)
2) Buffer solution: 50 mmol/L HEPEs-Tris, pH=6.5, 5 mmol/L magnesium chloride, 10 μmol/L valinomycin;
3) Buffer solution: 50 mmol/L HEPEs-Tris, pH=6.5, 5 mmol/L magnesium chloride, 10 μmol/L valinomycin, 5 mmol/L potassium chloride;
4) ATP: diluting ATP to 5 mM with buffer solution 1;
5) Malachite green solution: dissolving 0.12% of malachite green in 2.5 mol/L of sulfuric acid; mixing 7.5% (V/V) of ammonium molybdate and 11% of Tween 20(V/V) in a proportion of 100:25:2;
6) The method for extracting rabbit gastric mucosal microsomes (enriched H^+/K^+-ATPase) is sucrose gradient centrifugation, i.e., washing the rabbit stomach with tap water and 3M NaCl solution respectively and removing the surface moisture with filter paper; adding the pre-cooled buffer solution (4 ml/g tissue) for homogenation in a tissue homogenizer for 2-5 min; removing the large tissue particles in a way of centrifugation (600 g, 10 mm) if any after homogenation; transferring the supernatant to a clean centrifugal tube for centrifugation for 30 min at 2000 g; then transferring the supernatant to a clean centrifugal tube for further centrifugation for 90 min at 100000 g; collecting the sediment; suspending the sediment in the homogenate and blowing it to be uniform; measuring the protein concentration with Bradford method; adjusting the concentration to 10 mg/ml; adding 7.5% Ficoll demixing fluid in an equal proportion for centrifugation for 60 min at 100000 g; collecting the middle layer (H^+/K^+-ATPase enriched gastric membranes) into a clean centrifugal tube; diluting it with 4-5 times of homogenate for further centrifugation for 90 min at 100000 g; collecting the sediment; suspending the sediment in the homogenate for homogenation with a glass homogenizer; measuring the protein concentration with Bradford method and adjusting the concentration to 22.5 mg/ml; freezing it under −80° C. for standby. Experimental Process:
Adding 5 μL of gastric mucosal microsomes (H^+/K^+-ATPase) in 45 µL of buffer solution 2; adding 5 μL of the compound solution; adding 5 μL 5 mM of ATP to start the reaction for pre-reaction at 37° C. for 30 min; adding 15 μL of malachite green solution to terminate the reaction; balancing at ambient temperature for 20 min; reading the value of absorbed light at 620 nm.
Meanwhile, conducting another reaction with the same volume without potassium chloride for background, which will be subtracted when calculating the enzymatic activity.
The value of Compound IC50 is calculated through the inhibition ratios at different concentrations.

The next data set concerns the target T2, hERG potassium channel (Homo sapiens, UniProt Q12809).
T2 construct: expressed in transfected cells
Description: Whole cell patch clamp, inhibition of hERG tail current. Format: cell-based. As for the experimental part: Test Case 2: Studies on the Effect of Compounds EXP 1, TAK-438 and EXP 12 on hERG Potassium Channel Testing System 1) Cell culture: the hERG cell is cultured in a routine way, which is subcultured in a DMEM containing 10% of fetal calf serum and 250 μg/ml of G418. 2) Fluid preparation: the composition of the extracellular fluid used in the experiment of whole cell patch clamp comprises (mM): NaCl 145, MgCl21, KCl 4, Glucose 10, HEPES 10 and CaCl22; adjusting the pH value of NaOH to 7.4 and adjusting the value of osmotic pressure to 300 mOsm with sucrose. The composition of the intracellular fluid comprises (mM):KCl 140; MgCl 21; EGTA 5; HEPES 10 and Na2ATP 4; adjusting the pH value of KOH to 7.2 and adjusting the value of osmotic pressure to 290 mOsm with sucrose.
Main composition of the extracellular and intracellular fluid
Test Procedure 1) Electrophysiological recording: taking out one culture dish for each test; cleaning it with the extracellular fluid twice and placing it on the inverted microscope stage. The experiment of whole cell patch clamp is conducted at ambient temperature; the resistance at the microelectrode tip of the used borosilicate glass is 3-5 MQ. 2) Voltage stimulus plan and current record: clamping down the membrane potential to −80 mV under the whole-cell recording mode; giving +50 mV of depolarized voltage stimulus to the cell every 30 s and lasting for 2 s, then repolarizing it to −50 mV and lasting for 3 s, thus, the tail current of hERG can be extracted. Giving 50 ms, −50 mV repolarized voltage to the cell before depolarized voltage stimulus; the current recorded at such voltage is as the base line for calculating the tail current of hERG. Only the cells meet the recording standard can be used in the test of the compounds to be tested. The hERG tail current should be recorded stably at last for 3 min in the extracellular fluid before the compound is added. After perfusion of drugs, it can be regarded that the drug effect reaches a steady state if the change of the amplitude of hERG tail current is less than 5%. If the current fails to reach a steady state in 6 min, the test should also be terminated. 3) Testing standard: the membrane resistance in the experiment should be more than 1,000 MQ. The initial current should be more than 300 pA. The series resistance should be less than 12 MQ after the whole-cell recording mode is constructed. The leakage current is less than 10% of the ionic channel current (taking −80 pA as the peak value). Data Analysis
Using Clampex 10.2 to record the original data and saving the data in the format of *abf. Using pCLAMP 10.1 to conduct data collection and analysis. Selecting 4-5 sweeps when the current is in a steady state before the compound is added; calculating the average peak value to serve as the contrasted current amplitude. Selecting 4-5 sweeps when the current is in a steady state after the compound is added; calculating the average peak value to serve as the residual amplitude of the inhibited current. The inhibition ratio of the compound to be tested to hERG current is calculated as per the equation as: % inhibition ratio={1−(current residual amplitude)/(contrasted current amplitude)}*100
After the inhibition ratio (average value±standard deviation) of the compound to be tested to the hERG current of different concentrations is obtained through the above computing method, the data with logistic equation should be fitted to obtain the value of IC50.

Data set [1] relates to gastric acid secretion induced by histamine. Description: Gastric acid secretion induced by histamine in pylorus-ligated rats. Format: in vivo. The settings on record: SD rat. An excerpt: Test Case 3: Studies on the Effect of EXP 1, TAK-438 and EXP 14 on Gastric Acid Secretion Induced by Histamine Experimental Materials 1) Animals
SD rat, class SPF, male, 180-220 g; provided by Zhejiang Experimental Animal Center; production permit no.: SCXK (Z) 2014-0001.
Compound EXP 1, dissolved with a small amount of acetic acid (about 1.10N EXP 1), 0.9% sodium chloride solution to a clear liquid with needed concentration before use.
>Compound TAK-438, dissolved with 0.9% sodium chloride solution to a clear liquid with needed concentration before use.
Compound EXP 14, dissolved with a small amount of acetic acid (about 1.10N EXP 14), 0.9% sodium chloride solution to a clear liquid with needed concentration before use.
Fetching 60 SD rats of class SPF with a weight of 180-220 g; dividing the rats into 5 groups as per weights randomly, including Group EXP 1 (2 mg/kg), Group TAK-438 (2 mg/kg, as per free alkali), Group EXP 14 (2 mg/kg), Group negative control (normal saline of equal volume) and Group model control (normal saline of equal volume); 12 rats per group. Absolute diet for 24 h, water is allowed. After 24 h, administrating drugs to the tested compound groups A, B and C by gavage with a volume of 1 ml/100 g; each group is administered once; the negative control and model negative control groups are administrated by gavage with normal saline of equal volume. Narcotizing the rat with 300 mg/kg of chloral hydrate (1 ml/100 g) and fixing it onto the rat board; cutting to open the abdominal wall along the medioventral line from the mucronate cartilage with an incision of 2-3 cm; slightly pushing the left costal margin upward to expose the stomach in the incision. Ligaturing the pylorus thereunder (leave alone the adjacent blood vessels) and then suturing the abdominal incision. Giving histamine dihydrochloride (30 mg/10 m/kg) hypodermically to the rat 1 h after the tested compound or normal saline are administrated. Choking the rat to death with excessive CO2 3 h after the histamine is given; taking out the stomach and collecting the gastric contents for centrifugation at 3000 rpm/min; adjusting the PH value of the acid fluid to 7.0 with 0.1 mol/L of NaOH titration and then calculating the total acid content of the 3 h. Refer to Table 3 for results.

The structures appear in SMILES notation. Marks after values point to notes of the source that are not given here.

T1 sequence (P27112 whole entry): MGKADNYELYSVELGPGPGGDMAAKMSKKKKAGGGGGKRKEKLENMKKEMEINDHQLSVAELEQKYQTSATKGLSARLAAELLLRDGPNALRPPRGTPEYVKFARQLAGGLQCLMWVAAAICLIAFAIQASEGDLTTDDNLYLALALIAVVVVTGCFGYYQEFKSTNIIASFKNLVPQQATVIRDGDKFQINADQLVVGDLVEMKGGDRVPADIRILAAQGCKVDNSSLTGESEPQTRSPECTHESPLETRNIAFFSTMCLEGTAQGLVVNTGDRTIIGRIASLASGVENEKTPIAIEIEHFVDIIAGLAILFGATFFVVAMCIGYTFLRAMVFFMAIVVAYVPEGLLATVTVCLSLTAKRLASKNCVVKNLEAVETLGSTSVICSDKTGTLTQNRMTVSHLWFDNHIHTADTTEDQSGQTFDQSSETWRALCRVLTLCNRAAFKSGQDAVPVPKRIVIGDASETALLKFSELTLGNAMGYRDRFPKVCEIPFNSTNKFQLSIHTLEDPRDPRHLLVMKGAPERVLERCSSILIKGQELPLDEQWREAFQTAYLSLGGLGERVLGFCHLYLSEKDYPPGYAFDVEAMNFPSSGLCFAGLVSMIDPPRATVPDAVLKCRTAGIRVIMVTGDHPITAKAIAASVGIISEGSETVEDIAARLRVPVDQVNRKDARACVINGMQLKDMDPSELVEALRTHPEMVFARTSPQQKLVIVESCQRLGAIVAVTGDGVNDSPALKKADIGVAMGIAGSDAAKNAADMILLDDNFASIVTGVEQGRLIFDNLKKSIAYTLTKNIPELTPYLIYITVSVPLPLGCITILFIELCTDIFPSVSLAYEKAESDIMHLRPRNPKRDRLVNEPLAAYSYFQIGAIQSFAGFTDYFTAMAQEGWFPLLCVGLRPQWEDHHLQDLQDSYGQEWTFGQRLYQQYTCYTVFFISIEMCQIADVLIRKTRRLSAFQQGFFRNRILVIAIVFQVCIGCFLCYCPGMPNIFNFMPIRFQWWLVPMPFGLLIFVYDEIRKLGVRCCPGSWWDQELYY
T1 sequence (P18597 whole entry partner): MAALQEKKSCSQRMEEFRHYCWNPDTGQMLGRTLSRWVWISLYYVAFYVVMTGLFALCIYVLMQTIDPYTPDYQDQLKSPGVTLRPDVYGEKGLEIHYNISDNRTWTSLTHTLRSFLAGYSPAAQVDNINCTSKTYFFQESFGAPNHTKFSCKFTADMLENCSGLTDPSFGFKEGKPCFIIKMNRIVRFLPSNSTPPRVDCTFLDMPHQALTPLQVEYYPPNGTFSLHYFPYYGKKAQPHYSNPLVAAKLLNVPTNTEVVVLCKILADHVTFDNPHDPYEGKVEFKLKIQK
T2 sequence (Q12809 whole entry): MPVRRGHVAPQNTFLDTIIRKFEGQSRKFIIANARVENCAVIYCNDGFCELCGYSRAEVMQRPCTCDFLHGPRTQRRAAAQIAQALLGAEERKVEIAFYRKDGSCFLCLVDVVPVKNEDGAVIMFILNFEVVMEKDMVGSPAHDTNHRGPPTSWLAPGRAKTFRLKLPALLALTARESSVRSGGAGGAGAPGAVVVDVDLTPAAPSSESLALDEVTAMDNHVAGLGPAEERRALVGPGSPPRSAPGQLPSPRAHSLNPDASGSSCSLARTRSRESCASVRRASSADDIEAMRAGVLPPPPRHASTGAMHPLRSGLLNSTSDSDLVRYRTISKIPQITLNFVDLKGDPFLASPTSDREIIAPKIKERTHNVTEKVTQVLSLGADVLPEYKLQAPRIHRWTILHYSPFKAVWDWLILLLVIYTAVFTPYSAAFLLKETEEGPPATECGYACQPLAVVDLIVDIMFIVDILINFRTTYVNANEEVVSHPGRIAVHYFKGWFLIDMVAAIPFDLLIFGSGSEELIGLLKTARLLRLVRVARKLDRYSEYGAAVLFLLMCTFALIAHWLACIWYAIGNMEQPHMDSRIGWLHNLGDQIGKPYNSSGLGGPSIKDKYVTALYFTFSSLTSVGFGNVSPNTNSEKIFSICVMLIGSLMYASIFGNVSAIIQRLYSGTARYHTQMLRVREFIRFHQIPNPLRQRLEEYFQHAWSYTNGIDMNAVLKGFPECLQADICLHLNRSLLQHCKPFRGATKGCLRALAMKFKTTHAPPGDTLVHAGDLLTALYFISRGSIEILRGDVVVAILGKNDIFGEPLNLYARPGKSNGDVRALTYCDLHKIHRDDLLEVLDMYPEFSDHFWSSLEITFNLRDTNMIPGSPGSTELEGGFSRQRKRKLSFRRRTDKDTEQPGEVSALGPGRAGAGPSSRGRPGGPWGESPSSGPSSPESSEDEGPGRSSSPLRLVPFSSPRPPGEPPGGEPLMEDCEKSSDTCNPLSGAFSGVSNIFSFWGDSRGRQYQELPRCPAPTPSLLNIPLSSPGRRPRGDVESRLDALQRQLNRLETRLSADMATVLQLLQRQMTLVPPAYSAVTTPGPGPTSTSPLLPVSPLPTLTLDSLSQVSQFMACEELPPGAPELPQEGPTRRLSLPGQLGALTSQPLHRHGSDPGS

With `CNCc1cc(-c2ccccc2F)n(S(=O)(=O)c2cccc(OC3CCN(C(C)=O)C3)c2)c1` (stereo not shown) [EXP 2, 1-(3-(3-((2-(2-fluorobenzene)-4-((methylamino)methyl)-1H-yl)sulfonyl)phenoxy)pyrrolidine-1-yl)ethyl-1-ketone], the IC50 on H^+/K^+-ATPase was in the range of 0.1 to 1 µM.

Take `CNCc1cc(-c2ccccc2F)n(S(=O)(=O)c2cccc(OCCOC)c2)c1` [EXP 3, 1-(5-(2-fluorobenzene)-1-((3-(2-methoxyethyoxyl)phenyl)sulfonyl)-1H-pyrrole-3-yl)-N-methyl methylamine]: at H^+/K^+-ATPase, the IC50 is 0.1 to 1 µM.

`CNCc1cc(-c2ccccc2F)n(S(=O)(=O)c2cccc(OCCCS(C)(=O)=O)c2)c1` [EXP 4, 1-(5-(2-fluorobenzene)-1-((3-(3-methylsulphonylpropoxy)phenyl)sulfonyl)-1H-pyrrole-3-yl)-N-methyl methylamine]: at H^+/K^+-ATPase, the IC50 was less than 0.1 µM.

Regarding `CNCc1cc(-c2ccccc2F)n(S(=O)(=O)c2cccc(OCCN3CCOCC3)c2)c1` [EXP 5, 1-(5-(2-Fluorobenzene)-1-((3-(2-Morpholinyl Ethyoxyl)Phenyl)Sulfonyl)-1H-Pyrrole-3-Yl)-N-Methyl Methylamine], the IC50 on H^+/K^+-ATPase was 0.1 to 1 µM.

Regarding `CNCc1cc(-c2ccccc2F)n(S(=O)(=O)c2cccc(NCCN3CCOCC3)c2)c1` [EXP 6, 3-((2-(2-Fluorobenzene)-4-((Methylamino)Methylene)-1H-Pyrrole-1-Yl)Sulfonyl)-N-(2-Morpholinyl Ethyl) Henylamine], on H^+/K^+-ATPase, the IC50 lay in the range of 0.1 to 1 µM.

In the case of `CNCCCOc1cccc(S(=O)(=O)n2cc(CNC)cc2-c2ccccc2F)c1` [EXP 7, 3-(3-((2-(2-fluorobenzene)-4-((methylamino)methylene)-1H-pyrrole-1-yl)sulfonyl)phenoxy)-N-methyl-n-propylamine], the IC50 on H^+/K^+-ATPase is 0.1 to 1 µM.

`CNCc1cc(-c2ccccc2F)n(S(=O)(=O)c2cccc(OCC3CNCCO3)c2)c1` (stereo not shown) [EXP 8, 1-(5-(2-fluorobenzene)-1-((3-(morpholinyl-2-yl-methoxyl)phenyl)sulfonyl)-1H-pyrrole-3-yl)-N-methyl methylamine]: the IC50 at H^+/K^+-ATPase was 0.1 to 1 µM.

On to `CNCc1cc(-c2ccccc2F)n(S(=O)(=O)c2cccc(OCC(C)(C)COC)c2)c1` [EXP 9, 1-(5-(2-fluorobenzene)-1-((3-(3-methoxy-2,2-dimethylpropoxy)phenyl)sulfonyl)-1H-pyrrole-3-yl)-N-methyl methylamine], for which, at H^+/K^+-ATPase, the IC50 lay in the range of 0.1 to 1 µM.

Consider `CNCc1cc(-c2ccccc2F)n(S(=O)(=O)c2cccc(OCCOc3ccccc3)c2)c1` [EXP 10, 1-(5-(2-Fluorobenzene)-1-((3-(2-Phenoxy Ethyoxyl)Phenyl)Sulfonyl)-1H-Pyrrole-3-Yl)-N-Methyl Methylamine], for which the IC50 at H^+/K^+-ATPase was less than 0.1 µM.

With `CNCc1cc(-c2ccccc2F)n(S(=O)(=O)c2cccc(OCCN3CCCCC3)c2)c1` [EXP 11], the IC50 on H^+/K^+-ATPase was in the range of 1 to 5 µM.

In the case of `CNCc1cc(-c2ccccc2F)n(S(=O)(=O)c2cccc(OC)c2)c1` [EXP 12], the IC50 was 3.95 µM on hERG potassium channel (human, hERG cells (host cell line not named), pH 7.4, whole cell patch clamp, logistic fit) and less than 0.1 µM at H^+/K^+-ATPase. For the same compound, the “Inhibition ratio of max. test concentration (hERG current)” value at hERG potassium channel (max. test concentration 30 μM) is reported as 90.33 ± 2.16%.

On to `CNCc1cc(-c2ccccc2F)n(S(=O)(=O)c2cccc(OCC(=O)NC)c2)c1` [EXP 14, 2-(3-((2-(2-fluorophenyl)-4-((methylamine)methyl)-1H-pyrrole-1-yl)sulfonyl)phenoxy)-N-methylacetamide], for which the Total acid content in data set [1] (2 mg/kg by gavage 1 h before histamine, total acid of 3 h) was 0.65 ± 0.20** 10^−4 mol. Also, the “Acid inhibiting rate %” value in data set [1] (2 mg/kg by gavage, compared with model control) is on record as 40.4%. For the same compound, the IC50 on H^+/K^+-ATPase was in the range of 0.1 to 1 µM.

The values above are taken from patent US10913714B2, “Pyrrole sulfonyl derivative, preparation method and medical use thereof” (JIANGSU CAREPHAR PHARMACEUTICAL CO., LTD, priority 2015, dated 2021).
